| SMILES | melting point |
| --- | --- |
| CC[C@@]1(O)C(=O)OCc2c1cc1n(c2=O)Cc2c-1nc1ccc(C)c3c1c2C(NC(C)=O)CN3 (stereo partly shown) | 225 to 235 °C |
| CC[C@@]1(O)C(=O)OCc2c1cc1n(c2=O)Cc2c-1nc1cccc3c1c2CC(S(=O)(=O)O)C3 (stereo partly shown) | 190 to 200 °C (dec.) |
| CC[C@@]1(O)C(=O)OCc2c1cc1n(c2=O)Cc2c-1nc1ccc(C)c3c1c2CCN3CCNC(C)=O | 155 to 165 °C (dec.) |
| CC[C@@]1(O)C(=O)OCc2c1cc1n(c2=O)Cc2c-1nc1ccc(C)c3c1c2CCN3CCN.Cl | 210 to 230 °C (dec.) |
| CC[C@@]1(O)C(=O)OCc2c1cc1n(c2=O)Cc2c-1nc1cccc3c1c2C(NC(C)=O)CCC3 (stereo partly shown) | 203 to 206 °C (dec.) |
| CC[C@@]1(O)C(=O)OCc2c1cc1n(c2=O)Cc2c-1nc1ccc(C)c3c1c2CCC3N1C(=O)c2ccccc2C1=O (stereo partly shown) | 285 to 290 °C (dec.) |
| CC[C@@]1(O)C(=O)OCc2c1cc1n(c2=O)Cc2c-1nc1ccc(Cl)c3c1c2C(NC(C)=O)CN3 (stereo partly shown) | 250 to 270 °C |

Reference: US6407115B1, “Hexa-cyclic compound” (Daiichi Pharmaceutical Co., Ltd., priority 1991, dated 2002)
